Measurements from US8420640B2, “Methods of treating amyloid disease using analogs of 1-(4-nitrophenyl) piperazine” (Treventis Corporation, priority 2008, dated 2013).

Target: T1, Aβ40 (Homo sapiens, UniProt P05067)
T1 construct: Compounds Showing Activity Observed in a ThT Functional Aβ 1-40 Aggregation Assay
Assay: ThT functional Aβ 1-40 aggregation assay
Format: biochemical
Details: for IC50: 20 μM Aβ, 20 mM Tris pH 7.4, 150 mM NaCl, 1% DMSO, 37° C.; for Ratio: potency with respect to the compound of Example 7, 1=potency of that compound
Method: Aβ40 (1.0 mg) was pre-treated in a 1.5 mL microfuge tube with HFIP (1 mL) and sonicated for 20 min to disassemble any pre-formed Aβ aggregates. The HFIP was removed with a stream of argon and the Aβ dissolved in Tris base (5.8 mL, 20 mM, pH ˜10). The pH was adjusted to 7.4 with concentrated HCl (˜10 μL) and the solution filtered using a syringe filter (0.2 μm) before being used.
The kinetic ThT assay for Aβ aggregation is similar to that of Chalifour et al (Chalifour et al, 2003, J. Biol. Chem. 278:34874-81). Briefly, pre-treated Aβ40 (40 μM in 20 mM Tris, pH 7.4), was diluted with an equal volume of 8 μM ThT in Tris (20 mM, pH 7.4, 300 mM NaCl). Aliquots of Aβ/ThT (200 μL) were added to wells of a black polystyrene 96-well plate, followed by 2 μL of a compound in DMSO (variable concentration), or DMSO alone (controls). Incubations were performed in triplicate and were taken to contain 20 μM Aβ, various concentration of compound in 20 mM Tris, pH 7.4, 150 mM NaCl, 1% DMSO. Plates were covered with clear polystyrene lids and incubated at 37° C. in a Tecan Genios microplate reader. Fluorescence readings (λex=450 nm, λem=480 nm) were taken every 15 min., after first shaking at high intensity for 15 s and allowing to settle for 10 s before each reading. Active compounds attenuated the increase in fluorescence over time that occurred in controls. By repeating this procedure over several concentrations, a mean inhibitory concentration (IC50) was measured, as given in the table below. The column “A-syn” represents a similar procedure measuring inhibition of alpha-synuclein aggregation. The column “ratio” is a reproducible assessment of potency with respect to the compound of Example 7, in which 1=potency of that compound: […]

T1 sequence (P05067 672-711 limits assumed): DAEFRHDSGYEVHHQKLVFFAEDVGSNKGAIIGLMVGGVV

IC50	Ratio	SMILES
> 50 µM		O=C(c1ccccc1)N1CCN(c2ccc([N+](=O)[O-])c(Oc3ccccc3)c2)CC1
265 µM	0.03	NC(=O)c1ccc(N2CCN(C(=O)c3ccccc3)CC2)cc1NCc1ccccc1
54.4 µM	0.17	O=C(c1ccccc1)N1CCN(c2ccc(NCCN3CCOCC3)c(Nc3ccccc3)c2)CC1
> 50 µM		CS(=O)(=O)N1CCN(c2ccc([N+](=O)[O-])c(Nc3ccccc3)c2)CC1
1.9 µM	9.9	Nc1ccc(N2CCN(C(=O)c3ccccc3)CC2)cc1Nc1ccccc1
174 µM	0.14	COC(=O)c1ccc(N2CCN(C(=O)c3ccccc3)CC2)cc1NCc1ccccc1
23 µM	0.89	O=C(O)C1CCN(c2ccc([N+](=O)[O-])c(NCc3ccccc3)c2)CC1
184 µM	0.02	O=C(O)c1ccc(-c2ccc([N+](=O)[O-])c(NCc3ccccc3)c2)cc1
> 50 µM		O=[N+]([O-])c1ccc(N2CCN(S(=O)(=O)c3ccccc3)CC2)cc1Nc1ccccc1
2.29 µM	4.4	CNc1ccc(N2CCN(C(=O)c3ccccc3)CC2)cc1Nc1ccccc1
41.9 µM	0.5	O=C(O)c1ccccc1-c1ccc([N+](=O)[O-])c(NCc2ccccc2)c1
> 50 µM		O=[N+]([O-])c1ccc(N2CCN(Cc3ccccc3)CC2)cc1Nc1ccccc1
428 µM	0.05	Nc1cccc(N2CCN(C(=O)c3ccccc3)CC2)c1
90 µM	0.1	O=C(c1ccccc1)N1CCN(c2ccc(NCCO)c(Nc3ccccc3)c2)CC1
25.8 µM	0.58	CC(=O)N1CCN(c2ccc([N+](=O)[O-])c(NCc3ccccc3)c2)CC1
217 µM	0.07	O=C(Nc1ccccc1)c1ccc(-c2ccc([N+](=O)[O-])c(NCc3ccccc3)c2)cc1
105 µM	0.04	CC(=O)Nc1cc([N+](=O)[O-])ccc1N1CCN(C(=O)c2ccccc2)CC1
975 µM	0.03	O=C(NCc1ccccc1)C1CCN(c2ccc([N+](=O)[O-])c(NCc3ccccc3)c2)CC1
4.03 µM		CC(=O)N1CCN(c2ccc([N+](=O)[O-])c(N3CCc4ccccc4C3)c2)CC1
178 µM	0.05	O=C(Nc1cc(N2CCN(C(=O)c3ccccc3)CC2)ccc1[N+](=O)[O-])c1ccccc1
5730 µM	0	O=C(Nc1ccccc1)c1cccc(-c2ccc([N+](=O)[O-])c(NCc3ccccc3)c2)c1
20 to 50 µM		O=[N+]([O-])c1ccc(Br)cc1NCc1ccccc1
360 µM	0.06	O=C(c1ccccc1)N1CCN(c2cccc([N+](=O)[O-])c2)CC1 [drawing 151]
107 µM	0.35	Nc1ccc(N2CCN(C(=O)c3ccccc3)CC2)cc1N(Cc1ccccc1)c1ccccc1
238 µM	0.04	COc1ccc(N2CCN(C(=O)c3ccccc3)CC2)cc1Nc1ccccc1
44 µM	0.19	CC(=O)Nc1cc(N2CCN(C(=O)c3ccccc3)CC2)ccc1[N+](=O)[O-]
	0.21	CC(=O)Nc1ccc(N2CCN(C(=O)c3ccccc3)CC2)cc1Nc1ccccc1

IC50	Ratio	SMILES
152 µM	0.03	O=C(Nc1ccccc1)c1ccccc1-c1ccc([N+](=O)[O-])c(NCc2ccccc2)c1
631 µM	0.02	O=C(NCc1ccccc1)c1ccccc1-c1ccc([N+](=O)[O-])c(NCc2ccccc2)c1
21.7 µM	0.88	O=C(O)C1CCCN(c2ccc([N+](=O)[O-])c(NCc3ccccc3)c2)C1 (stereo not drawn)
8.4 µM	0.72	CN(C)C(=O)N1CCN(c2ccc([N+](=O)[O-])c(Nc3ccccc3)c2)CC1
18 µM	0.22	O=C(c1ccccc1)N1CCN(c2ccc([N+](=O)[O-])cc2NCc2ccccc2)CC1
> 100 µM		O=[N+]([O-])c1ccc(N2CCCCC2)cc1Nc1ccccc1
42 µM	0.11	O=C(NCc1ccccc1)c1ccc(-c2ccc([N+](=O)[O-])c(NCc3ccccc3)c2)cc1
> 20 µM		O=C(c1cccs1)N1CCN(c2ccc([N+](=O)[O-])c(-n3nc(-c4ccccc4)c4ccccc4c3=O)c2)CC1
196 µM	0.04	O=C(c1ccccc1)N1CCN(c2cccc([N+](=O)[O-])c2)CC1 [drawing 132]
66.2 µM	0.13	CCNC(=O)c1ccc(N2CCN(C(=O)c3ccccc3)CC2)cc1NCc1ccccc1
539 µM	0.05	O=C(c1ccccc1)N1CCN(c2cccc(Nc3ccccc3)c2)CC1
84 µM	0.11	CN(C)C(=O)c1ccc(N2CCN(C(=O)c3ccccc3)CC2)cc1NCc1ccccc1
23 µM	0.40	O=[N+]([O-])c1ccc(N2CCOCC2)cc1Nc1ccccc1
2.7 µM		CCc1ccc(C(=O)N2CCN(c3ccc([N+](=O)[O-])c(N4CCOCC4)c3)CC2)cc1
15.5 µM	0.65	CN(c1ccccc1)c1cc(N2CCN(C(=O)c3ccccc3)CC2)ccc1N
39 µM	0.15	CN(C)c1ccc([N+](=O)[O-])c(Nc2ccccc2)c1
544 µM	0.05	O=C(Nc1ccccc1)C1CCN(c2ccc([N+](=O)[O-])c(NCc3ccccc3)c2)CC1
7.8 µM	1.3	CNc1ccc(N2CCN(C(=O)c3ccccc3)CC2)cc1N(C)c1ccccc1
2.1 µM		O=C(c1ccccc1F)N1CCN(c2ccc([N+](=O)[O-])c(NCc3ccco3)c2)CC1
14900 µM	0	O=C(NCc1ccccc1)c1cccc(-c2ccc([N+](=O)[O-])c(NCc3ccccc3)c2)c1
> 20 µM		COc1ccc(C(=O)N2CCN(c3ccc([N+](=O)[O-])c(NCc4ccco4)c3)CC2)cc1OC
92 µM	0.34	O=C(c1ccccc1)N1CCN(c2ccc([N+](=O)[O-])cc2Nc2ccccc2)CC1
1.4 µM		O=C(c1nnc[nH]1)N1CCN(c2ccc([N+](=O)[O-])c(NCc3ccc(Cl)cc3)c2)CC1
1040 µM	0.01	O=C(Nc1cc([N+](=O)[O-])ccc1N1CCN(C(=O)c2ccccc2)CC1)c1ccccc1
189 µM	0.05	O=C(O)c1ccc(N2CCN(C(=O)c3ccccc3)CC2)cc1NCc1ccccc1
148 µM	0.25	CN(C)c1ccc(N2CCN(C(=O)c3ccccc3)CC2)cc1N(C)c1ccccc1
63 µM	0.38	O=[N+]([O-])c1ccccc1NCc1ccccc1

SMILES	IC50	Ratio
O=[N+]([O-])c1ccc(N2CCNCC2)cc1Nc1ccccc1	8.82 µM	0.54
CN1CCN(c2ccc([N+](=O)[O-])c(Nc3ccccc3)c2)CC1	23.2 µM	0.42
CCOC(=O)C1CCN(c2ccc([N+](=O)[O-])cc2C(=O)c2ccc(Cl)cc2)CC1	> 20 µM	
CCN(CC)C(=O)c1ccc(N2CCN(C(=O)c3ccccc3)CC2)cc1NCc1ccccc1	361 µM	0.05
